Results: article PMC11274883, “Anticancer Effect of Pt^[sequence], Pt^II5MESS, Pt^II56MESS and Their Platinum(IV)-Dihydroxy Derivatives against Triple-Negative Breast Cancer and Cisplatin-Resistant Colorectal Cancer” (Cancers, 2024)

How the values were obtained:
[1] = tested on: A2780; assay: WST-1 cytotoxicity, 72 h; assay type: cell-based; details: for potency relative to cisplatin / IC50: A2780, 72 h; for IC50: mean ± SEM; for Selective cytotoxicity index (SCI): IC50 MCF10A/IC50 A2780
Method: (§1) Cells were seeded in 96-well flat-bottom culture plates at a concentration of 1000 cells per well. […] After 72 h, the medium was removed and replaced with new medium. The cell viability reagent WST-1 (10 µL, Roche Diagnostics, Indianapolis, IN, USA) was added to each well. After an hour, the absorbance was measured at 450 nm using a versatile microplate reader (Bio-strategy, Campbellfield, VIC, Australia). Three separate experiments were performed, each with n = 3 replicates. GraphPad prism 10 was used to calculate apparent IC50 values using the nonlinear regression model Y = Bottom + (Top-Bottom)/(1 + 10^(X-LogIC50)) where Top and bottom are plateaus in the y-axis (% survival).

[2] = tested on: ADDP; assay: WST-1 cytotoxicity, 72 h; assay type: cell-based; details: for potency relative to cisplatin / IC50: ADDP, 72 h; for IC50: mean ± SEM; for Selective cytotoxicity index (SCI): IC50 MCF10A/IC50 ADDP
Method: as §1

[3] = tested on: HT29; assay: WST-1 cytotoxicity, 72 h; assay type: cell-based; details: for potency relative to cisplatin / IC50: HT29, 72 h; for IC50: mean ± SEM; for Selective cytotoxicity index (SCI): IC50 MCF10A/IC50 HT29
Method: as §1

[4] = tested on: MCF−7; assay: WST-1 cytotoxicity, 72 h; assay type: cell-based; details: for Selective cytotoxicity index (SCI): IC50 MCF10A/IC50 MCF−7; for potency relative to cisplatin / IC50: MCF−7, 72 h; for IC50: mean ± SEM
Method: as §1

[5] = tested on: MDA−MB−231; assay: WST-1 cytotoxicity, 72 h; assay type: cell-based; details: for Selective cytotoxicity index (SCI): IC50 MCF10A/IC50 MDA−MB−231; for potency relative to cisplatin / IC50: MDA−MB−231, 72 h; for IC50: mean ± SEM
Method: as §1

[6] = tested on: HT29 cells; assay: TMRE mitochondrial membrane potential assay; assay type: cell-based; details: complexes at IC50, FCCP 20 µM
Method: (§2) Cells were then treated with an IC50 drug concentration for each complex. At 24, 48 or 72 h, DMEM was removed, and cells were washed with PBS. Then, cells were incubated with 1 µM tetramethylrhodamine, ethyl ester (TMRE) stain for 30 min. TMRE was then removed, and cells were washed twice with PBS (0.2% BSA), after which phenol red-free media was added. […] The cells were then stained with TMRE, as described above, and the resulting solution was scanned for fluorescence. Three independent experiments in triplicates were implemented.

[7] = tested on: MDA−MB−231 cells; assay: TMRE mitochondrial membrane potential assay; assay type: cell-based; details: complexes at IC50, FCCP 20 µM
Method: as §2

[8] = tested on: HT29 cells; assay: Label-free quantitative proteomics; assay type: cell-based, Homo Sapiens; details: HT29, IC50, 72 h
Method: (§3) The supernatant was then collected into 15 mL tubes, then the cells were washed with PBS and trypsinised. The detached cells were transferred to allocated tubes and centrifuged at 500× g for 5 min at 4 °C. Cell pellet was washed twice with PBS and then resuspended in 300 µL cell lysis buffer (RIPA) for 30 min on ice. Cell extracts were then centrifuged at 12,000× g for 15 min at 4 °C, and the supernatants (containing the proteins) were collected into Lo-Bind Eppendorf. The Bio-Rad protein assay (Bio-Rad, Hercules, CA, USA) was used to assess protein content. For protein extraction and delipidation 100 µL of the cell homogenate was moved to 1.7 mL Lo-Bind Eppendorf tubes and 450 µL methanol was added to the mixture and vortexed. Chloroform (150 µL) was next added and vortexed. Then, water (450 µL) was added to the mixture, vortexed and centrifuged for 5 min at 12,000× g, which formed the protein pellet at the organic/aqueous interface. The layer of chloroform was removed and then 400 µL of methanol was added. The sample was then vortexed and centrifuged at 12,000× g for 15 min. The supernatant was then aspirated and discarded. The pellet was then washed with methanol (400 µL). The supernatant was removed, and the pellets were air-dried overnight. Next, steps were performed for reduction, alkylation, and tryptic digestion of the protein. 0.1% RapiGest (Waters, Milford, MA, USA) in 50 mM aqueous ammonium bicarbonate (20 µL) was added to the air-dried pellet and vortexed for effective suspension. The pellet should completely dissolve. Then, 50 µL of 7 mM DTT in 50 mM aqueous ammonium bicarbonate was added, to give a final concentration of 5 mM DTT. Samples were then heated for 30 min at 60 °C and cooled to room temperature. Iodoacetamide (45 mM) in 50 mM aqueous ammonium bicarbonate was next added to give a concentration of 15 mM. The mixture was allowed to react in the dark for 30 min. Then, 10 ng/µL of Trypsin Gold, Mass spectrometry grade (Promega, NSW, Australia) was added for digestion to occur at room temperature overnight. And 50 µL of 4% (v/v) aqueous trifluoroacetic acid was then added to each tube. Samples were next heated for 45 min at 37 °C to effect decomposition of RapiGest. Samples were then centrifuged at 12,000× g for 10 min at 4 °C. Supernatants were then transferred to total recovery vials and run on a nanoAcquity Ultra-Performance Liquid Chromatography (UPLC) coupled with a Synapt G2-Si instrument (Waters, MA, USA) was used for label-free quantitative protein profiling. Nano-proteomics method is detailed in Method S1. Three independent experiments in triplicates were implemented, while all samples were analysed in a single run with a single injection (1 µL) for each trial. Mass spectrometry (MS) data were processed using Progenesis QI for proteomics (version 4.1, Nonlinear Dynamics, Newcastle upon Tyne, UK), and aligned using UniProt Homo Sapiens reference database IDEP9.6 utilised to cluster and retrieve the initial signature analyses. […] Enrichment studies were performed using gene lists that corresponded to the identified proteins. Overrepresentation analysis was performed based on Gene Ontology (GO) Biological Processes, GO Cellular Components, and GO Molecular Functions using iDEP. Enrichment maps and STRING apps were used to construct pathways networks and explore protein–protein interactions.

[9] = tested on: MDA−MB−231 cells; assay: Label-free quantitative proteomics; assay type: cell-based, Homo Sapiens; details: MDA−MB−231, IC50, 72 h; for number of downregulated differentially expressed proteins / number of upregulated differentially expressed proteins: p < 0.05, fold change > 2
Method: as §3

Row | SMILES | potency relative to cisplatin [1] [fold] | IC50 [1] [nM] | Selective cytotoxicity index (SCI) [1] | potency relative to cisplatin [2] [fold] | IC50 [2] [nM] | Selective cytotoxicity index (SCI) [2] | potency relative to cisplatin [3] [fold] | IC50 [3] [nM] | Selective cytotoxicity index (SCI) [3] | Selective cytotoxicity index (SCI) [4] | potency relative to cisplatin [4] [fold] | IC50 [4] [nM] | Selective cytotoxicity index (SCI) [5] | potency relative to cisplatin [5] [fold] | IC50 [5] [nM] | MtMp (mitochondrial membrane potential) ([6]; HT29, 24 h) [RFU] | MtMp (mitochondrial membrane potential) ([6]; HT29, 48 h) [RFU] | MtMp (mitochondrial membrane potential) ([6]; HT29, 72 h) [RFU] | MtMp (mitochondrial membrane potential) ([7]; MDA−MB−231, 24 h) [RFU] | MtMp (mitochondrial membrane potential) ([7]; MDA−MB−231, 48 h) [RFU] | also measured
1 | Cc1c(C)c2cccnc2c2ncccc12.N[C@H]1CCCC[C@@H]1N.O=[N+]([O-])[O-].O=[N+]([O-])[O-].[Pt+2] [Pt^II56MESS, [Pt(5,6-dimethyl-1,10-phenanthroline)(1S,2S-diaminocyclohexane)](NO3)2] | 113 | 190 | 2.16 | 147 | 760 ± 1270 | 0.54 | 432 | 180 | 2.28 | 0.73 | 59 | 560 | 2.93 | 93 | 140 | 159.93 | 151.44 | 102.76 | 155.45 | 131.53 | MtMp (mitochondrial membrane potential) ([7]; MDA−MB−231, 72 h): 86.51 RFU; DEPs exhibited by the treatment (UpSet plot) [8]: 225; number of downregulated differentially expressed proteins ([8]; p < 0.05, fold change > 2): 228; number of upregulated differentially expressed proteins ([8]; p < 0.05, fold change > 2): 200; DEPs exhibited by the treatment (UpSet plot) [9]: 165; number of downregulated differentially expressed proteins [9]: 183; number of upregulated differentially expressed proteins [9]: 132
2 | Cc1cc2cccnc2c2ncccc12.N[C@H]1CCCC[C@@H]1N.O=[N+]([O-])[O-].O=[N+]([O-])[O-].[OH][Pt+2][OH] [Pt^IV5MESS(OH)2, [Pt(5-methyl-1,10-phenanthroline)(1S,2S-diaminocyclohexane)(dihydroxy)](NO3)2] | 10 | 2140 ± 1380 | 5.71 | 15 | 7710 ± 1310 | 1.58 | 21 | 3640 ± 1450 | 3.36 | 5.66 | 15 | 2160 ± 1530 | 4.38 | 5 | 2790 ± 1390 | 304.45 | 224.23 | 198.24 | 250.80 | 201.07 | MtMp (mitochondrial membrane potential) ([7]; MDA−MB−231, 72 h): 155.85 RFU; detected up and down differentially regulated proteins [8]: 3; number of downregulated differentially expressed proteins [9]: 33; number of upregulated differentially expressed proteins [9]: 38
3 | Cc1c(C)c2cccnc2c2ncccc12.N[C@H]1CCCC[C@@H]1N.O=[N+]([O-])[O-].O=[N+]([O-])[O-].[OH][Pt+2][OH] [Pt^IV56MESS(OH)2, [Pt(5,6-dimethyl-1,10-phenanthroline)(1S,2S-diaminocyclohexane)(dihydroxy)](NO3)2] | 13 | 1690 ± 1360 | 2.90 | 27 | 4170 ± 1550 | 1.18 | 62 | 1250 ± 1380 | 3.93 | 3.61 | 24 | 1360 ± 1470 | 6.92 | 18 | 710 ± 1220 | 258.69 | 172.39 | 124.84 | 190.39 | 156.37 | MtMp (mitochondrial membrane potential) ([7]; MDA−MB−231, 72 h): 92.94 RFU; detected up and down differentially regulated proteins [8]: 3; number of downregulated differentially expressed proteins [9]: 3; number of upregulated differentially expressed proteins [9]: 8
